Source: patent US4471131A, “Novel silyl esters of N-phosphonomethylglycine” (Monsanto Company, priority 1983, dated 1984)

Columns and labels:
Assay in all cases: post-emergence herbicidal activity, greenhouse
Assay type in all cases: in vivo
Morningglory = test system: Morningglory
In short: (§1)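 The readout is plant injury compared with untreated pans, taken at two time points, about two and four weeks after spraying. Plants had grown two to three weeks in greenhouse topsoil pans before atomizer treatment.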

Panicum Spp = details: Table III, formulated in anhydrous tetrahydrofuran
In short: as §1

Pennsylvania Smartweed = test system: Pennsylvania Smartweed
In short: as §1

Quackgrass = details: Table II
In short: (§2)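 After sowing in soil-filled pans and growing under greenhouse conditions, plants at two to three weeks were sprayed post-emergence with the test compound in a formulation containing approximately 0.4% emulsifier by weight. Observations of plant injury, relative to controls, followed at about two and four weeks.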

Rice = details: Table III, formulated in anhydrous tetrahydrofuran
In short: as §1

Soybean = details: Table III, formulated in anhydrous tetrahydrofuran
In short: as §1

Sugar Beet = details: Table III, formulated in anhydrous tetrahydrofuran
In short: as §1

Velvetleaf = test system: Velvetleaf
In short: as §1

Wild Buckwheat = details: Table III, formulated in anhydrous tetrahydrofuran
In short: as §1

Yellow Nutsedge = details: Table II
In short: as §2

[1] = Table II, 2 WAT, 5.6 kg/h, formulated in anhydrous tetrahydrofuran
[2] = Table II, 2 WAT, 11.2 kg/h, formulated in anhydrous tetrahydrofuran
[3] = Table II, 4 WAT, 11.2 kg/h, formulated in anhydrous tetrahydrofuran
[4] = Table III, 2 WAT, 1.1 kg/h, formulated in anhydrous tetrahydrofuran
[5] = Table III, 2 WAT, 5.6 kg/h, formulated in anhydrous tetrahydrofuran
[6] = Table III, 2 WAT, .28 kg/h, formulated in anhydrous tetrahydrofuran
[7] = Table III, 4 WAT, 5.6 kg/h, formulated in anhydrous tetrahydrofuran
[8] = 2 WAT, 5.6 kg/h, formulated in anhydrous tetrahydrofuran
[9] = 2 WAT, 11.2 kg/h, formulated in anhydrous tetrahydrofuran
[10] = 4 WAT, 11.2 kg/h, formulated in anhydrous tetrahydrofuran

For `CC(C)(C)[Si](OP(=O)(O)CNCC(=O)O)(c1ccccc1)c1ccccc1` [Ex. 5, Glycine, N-((([(1,1-Dimethylethyl)Diphenylsilyl]oxy)-Hydroxyphosphinyl)-Methyl)-,], the “Plant Response Index (D)” value (Morningglory; Table II, 2 WAT, 5.6 kg/h) was 1 (25-49% inhibition), the “Plant Response Index (D)” value (Morningglory; [1]) was 1 (25-49% inhibition) and the “Plant Response Index (D)” value (Morningglory; Table II, 2 WAT, 11.2 kg/h) was 1 (25-49% inhibition). The “Plant Response Index (D)” value (Morningglory; [2]) was 1 (25-49% inhibition), the “Plant Response Index (D)” value (Morningglory; Table II, 4 WAT, 5.6 kg/h) was 1 (25-49% inhibition) and the “Plant Response Index (D)” value (Morningglory; Table II, 4 WAT, 11.2 kg/h) was 1 (25-49% inhibition). For the same molecule, the “Plant Response Index (D)” value (Morningglory; [3]) was 1 (25-49% inhibition), the “Plant Response Index (D)” value (Morningglory; [4]) was 0 (0-24% inhibition) and the “Plant Response Index (D)” value (Morningglory; [5]) was 1 (25-49% inhibition). The “Plant Response Index (D)” value (Morningglory; [6]) was 0 (0-24% inhibition), the “Plant Response Index (D)” value (Morningglory; [7]) was 0 (0-24% inhibition) and the “Plant Response Index (S)” value (Panicum Spp; 2 WAT, 1.1 kg/h) was 0 (0-24% inhibition). The “Plant Response Index (S)” value (Panicum Spp; 2 WAT, 5.6 kg/h) was 0 (0-24% inhibition), the “Plant Response Index (S)” value (Panicum Spp; 2 WAT, .28 kg/h) was 0 (0-24% inhibition) and the “Plant Response Index (S)” value (Panicum Spp; 4 WAT, 5.6 kg/h) was 0 (0-24% inhibition). For the same molecule, the “Plant Response Index (F)” value (Pennsylvania Smartweed; Table II, 2 WAT, 5.6 kg/h) was 0 (0-24% inhibition), the “Plant Response Index (F)” value (Pennsylvania Smartweed; [1]) was 0 (0-24% inhibition) and the “Plant Response Index (F)” value (Pennsylvania Smartweed; Table II, 2 WAT, 11.2 kg/h) was 2 (50-74% inhibition). For the same molecule, the “Plant Response Index (F)” value (Pennsylvania Smartweed; [2]) was 0 (0-24% inhibition), the “Plant Response Index (F)” value (Pennsylvania Smartweed; Table II, 4 WAT, 5.6 kg/h) was 0 (0-24% inhibition) and the “Plant Response Index (F)” value (Pennsylvania Smartweed; Table II, 4 WAT, 11.2 kg/h) was 2 (50-74% inhibition). For the same molecule, the “Plant Response Index (F)” value (Pennsylvania Smartweed; [3]) was 0 (0-24% inhibition), the “Plant Response Index (F)” value (Pennsylvania Smartweed; [4]) was 0 (0-24% inhibition) and the “Plant Response Index (F)” value (Pennsylvania Smartweed; [5]) was 1 (25-49% inhibition). The “Plant Response Index (F)” value (Pennsylvania Smartweed; [6]) was 0 (0-24% inhibition), the “Plant Response Index (F)” value (Pennsylvania Smartweed; [7]) was 1 (25-49% inhibition) and the “Plant Response Index (H)” value (Quackgrass; 2 WAT, 5.6 kg/h) was 0 (0-24% inhibition). For the same molecule, the “Plant Response Index (H)” value (Quackgrass; [8]) was 0 (0-24% inhibition), the “Plant Response Index (H)” value (Quackgrass; 2 WAT, 11.2 kg/h) was 0 (0-24% inhibition) and the “Plant Response Index (H)” value (Quackgrass; [9]) was 0 (0-24% inhibition). The “Plant Response Index (H)” value (Quackgrass; 4 WAT, 5.6 kg/h) was 0 (0-24% inhibition), the “Plant Response Index (H)” value (Quackgrass; 4 WAT, 11.2 kg/h) was 1 (25-49% inhibition) and the “Plant Response Index (H)” value (Quackgrass; [10]) was 0 (0-24% inhibition). For the same molecule, the “Plant Response Index (O)” value (Rice; 2 WAT, 1.1 kg/h) was 0 (0-24% inhibition), the “Plant Response Index (O)” value (Rice; 2 WAT, 5.6 kg/h) was 0 (0-24% inhibition) and the “Plant Response Index (O)” value (Rice; 2 WAT, .28 kg/h) was 0 (0-24% inhibition). The “Plant Response Index (O)” value (Rice; 4 WAT, 5.6 kg/h) was 0 (0-24% inhibition), the “Plant Response Index (L)” value (Soybean; 2 WAT, 1.1 kg/h) was 1 (25-49% inhibition) and the “Plant Response Index (L)” value (Soybean; 2 WAT, 5.6 kg/h) was 1 (25-49% inhibition). The “Plant Response Index (L)” value (Soybean; 2 WAT, .28 kg/h) was 1 (25-49% inhibition), the “Plant Response Index (L)” value (Soybean; 4 WAT, 5.6 kg/h) was 0 (0-24% inhibition) and the “Plant Response Index (M)” value (Sugar Beet; 2 WAT, 1.1 kg/h) was 0 (0-24% inhibition). For the same molecule, the “Plant Response Index (M)” value (Sugar Beet; 2 WAT, 5.6 kg/h) was 0 (0-24% inhibition), the “Plant Response Index (M)” value (Sugar Beet; 2 WAT, .28 kg/h) was 0 (0-24% inhibition) and the “Plant Response Index (M)” value (Sugar Beet; 4 WAT, 5.6 kg/h) was 0 (0-24% inhibition). For the same molecule, the “Plant Response Index (C)” value (Velvetleaf; Table II, 2 WAT, 5.6 kg/h) was 0 (0-24% inhibition), the “Plant Response Index (C)” value (Velvetleaf; [1]) was 0 (0-24% inhibition) and the “Plant Response Index (C)” value (Velvetleaf; Table II, 2 WAT, 11.2 kg/h) was 1 (25-49% inhibition). For the same molecule, the “Plant Response Index (C)” value (Velvetleaf; [2]) was 0 (0-24% inhibition), the “Plant Response Index (C)” value (Velvetleaf; Table II, 4 WAT, 5.6 kg/h) was 0 (0-24% inhibition) and the “Plant Response Index (C)” value (Velvetleaf; Table II, 4 WAT, 11.2 kg/h) was 0 (0-24% inhibition). The “Plant Response Index (C)” value (Velvetleaf; [3]) was 0 (0-24% inhibition), the “Plant Response Index (C)” value (Velvetleaf; [4]) was 0 (0-24% inhibition) and the “Plant Response Index (C)” value (Velvetleaf; [5]) was 0 (0-24% inhibition). The “Plant Response Index (C)” value (Velvetleaf; [6]) was 0 (0-24% inhibition), the “Plant Response Index (C)” value (Velvetleaf; [7]) was 0 (0-24% inhibition) and the “Plant Response Index (Q)” value (Wild Buckwheat; 2 WAT, 1.1 kg/h) was 0 (0-24% inhibition). The “Plant Response Index (Q)” value (Wild Buckwheat; 2 WAT, 5.6 kg/h) was 1 (25-49% inhibition), the “Plant Response Index (Q)” value (Wild Buckwheat; 2 WAT, .28 kg/h) was 0 (0-24% inhibition) and the “Plant Response Index (Q)” value (Wild Buckwheat; 4 WAT, 5.6 kg/h) was 0 (0-24% inhibition). The “Plant Response Index (G)” value (Yellow Nutsedge; 2 WAT, 5.6 kg/h) was 0 (0-24% inhibition), the “Plant Response Index (G)” value (Yellow Nutsedge; [8]) was 0 (0-24% inhibition) and the “Plant Response Index (G)” value (Yellow Nutsedge; 2 WAT, 11.2 kg/h) was 1 (25-49% inhibition). For the same molecule, the “Plant Response Index (G)” value (Yellow Nutsedge; [9]) was 0 (0-24% inhibition), the “Plant Response Index (G)” value (Yellow Nutsedge; 4 WAT, 5.6 kg/h) was 1 (25-49% inhibition) and the “Plant Response Index (G)” value (Yellow Nutsedge; 4 WAT, 11.2 kg/h) was 2 (50-74% inhibition). For the same molecule, the “Plant Response Index (G)” value (Yellow Nutsedge; [10]) was 0 (0-24% inhibition).
